What all share (format): cell-based
The test system of one experiment is P. falciparum (K1). Nature of the experiment: Assay 1: anti-malarial in vitro efficacy, P. falciparum K1. As to conditions: Plasmodium falciparum; strain K1, assay 1. As to the method: (§1) The ability of aminopyridine derivatives according to the invention to kill P. falciparum parasites and/or to inhibit its proliferation was tested as follows:
(§2) Assay 1: The protocol used was as described in the supplemental material to Fiddock et al., 2004, Nature Reviews Drug Discovery, (3), p 509. […]

A further experiment has as its system P. falciparum (NF54). The experiment in a line: Assay 1: anti-malarial in vitro efficacy, P. falciparum NF54. The conditions noted are these: Plasmodium falciparum; strain NF54, assay 1. As to the method: as §1, §2
Another experiment deals with P. falciparum (Dd2). Nature of the experiment: Assay 2: DAPI imaging assay of parasite replication, P. falciparum Dd2. As to conditions: Plasmodium falciparum, strain Dd2, 1.8 μM, 72 hours. The method, then: as §1
(§3) Assay 2: Compounds were incubated in the presence of 2 or 3% ring stage parasite (P. falciparum 3D7 or Dd2) and 0.3% hematocrite in a total assay volume of 50 μL, for 72 hours in a humidified atmosphere at 37° C., 5% O2 and 5% CO2, in Poly-D-lysine coated Cell Carrier Imaging plates (Perkin Elmer). After incubation plates were stained with DAPI (4′,6-diamidino-2-phenylindole, Invitrogen) in the presence of Saponin and Triton X-100 (Sigma-Aldrich) and incubated for a further 5 hours at RT in the dark before imaging on the OPERATM HTS confocal imaging system (Perkin Elmer). The digital images obtained were then analyzed using the PerkinElmer Acapella spot detection software where spots which fulfil the criteria established for a stained parasite are counted. The % inhibition of parasite replication was calculated using DMSO and 2 μM Artemisinin control data. Measured % inhibition and EC50 (ng/ml) are reported in Tables 5 & 6 below against different strains of P. falciparum K1, NF54 (assay 1) and 3D7, Dd2 (assay 2), respectively).

The next experiment relates to P. falciparum (3D7). The experiment in a line: Assay 2: DAPI imaging assay of parasite replication, P. falciparum 3D7. As to conditions: Plasmodium falciparum, strain 3D7, 1.8 μM, 72 hours. The method, then:
as §1, §3

Values after ≈ are worked out from the molar mass of the structure shown.

In general, EC50 refers to the concentration at which the effect is half-maximal. A word on the inhibition: it is the relative decrease from the control value, in per cent. The low end stands for a weak effect, the high end for a strong effect.

In the case of `COc1ccc(-c2cc(-c3ccc(S(C)(=O)=O)cc3)cnc2N)cn1` [Compound 1, 3-(6-Methoxypyridin-3-yl)-5-(4-methylsulfonylphenyl) pyridin-2-amine], in the experiment with P. falciparum (K1), the EC50 is 0.014 µg/mL (≈ 0.0394 µM).
On to `CS(=O)(=O)c1ccc(-c2cnc(N)c(-c3cccc(C(F)(F)F)c3)c2)cc1` [Compound 2, 5-(4-methylsulfonylphenyl)-3-[3-(trifluoromethyl)phenyl]pyridin-2-amine], for which the EC50 came out at 0.041 µg/mL (≈ 0.104 µM) with P. falciparum (NF54) and 0.031 µg/mL (≈ 0.079 µM) with P. falciparum (K1). The inhibition at 1.8 µM with P. falciparum (Dd2) came to 96%; in the experiment on P. falciparum (3D7), 99%.
Regarding `CS(=O)(=O)c1ccc(-c2cnc(N)c(-c3cccc(O)c3)c2)cc1` [Compound 3, 3-[2-amino-5-(4-methylsulfonylphenyl)pyridin-3-yl]phenol], the values for the inhibition at 1.8 µM in the experiment with P. falciparum (Dd2) and in the experiment with P. falciparum (3D7) were 94% and 99%, respectively.
As to `COc1cc(-c2cc(-c3ccc(S(C)(=O)=O)cc3)cnc2N)ccc1O` [Compound 4, 4-[2-amino-5-(4-methylsulfonylphenyl)pyridin-3-yl]-2-methoxyphenol], the inhibition at 1.8 µM worked out at 96% with P. falciparum (Dd2) and 99% in the experiment on P. falciparum (3D7).
Consider `CS(=O)(=O)c1ccc(-c2cnc(N)c(-c3ccc(O)cc3)c2)cc1` [Compound 5, 4-[2-amino-5-(4-methylsulfonylphenyl)pyridin-3-yl]phenol], for which the inhibition at 1.8 µM in the experiment on P. falciparum (Dd2) and in the experiment with P. falciparum (3D7) was 98% throughout.
Turning to `COc1ccc(-c2cnc(N)c(-c3ccc(O)c(OC)c3)c2)cn1` [Compound 6, 4-[2-amino-5-(6-methoxypyridin-3-yl)pyridin-3-yl]-2-methoxyphenol], the inhibition at 1.8 µM in the experiment on P. falciparum (Dd2) and in the experiment on P. falciparum (3D7) was 98% in each case.
On to `Cc1cc(-c2cnc(N)c(-c3ccc(N4CCN(C)CC4)cc3)c2)cc(C)c1O` [Compound 7, 4-[6-amino-5-[4-(4-methylpiperazin-1-yl)phenyl]pyridin-3-yl]-2,6-dimethylphenol], for which the inhibition at 1.8 µM in the experiment with P. falciparum (Dd2) was 96%; in the experiment on P. falciparum (3D7), 93%.
`COc1ccc(-c2cc(-c3ccc(CO)cc3)cnc2N)cn1` [Compound 8, [4-[6-amino-5-(6-methoxypyridin-3-yl)pyridin-3-yl]phenyl]methanol]: in the experiment with P. falciparum (3D7), the inhibition at 1.8 µM turned out to be 83%.
For the molecule `CN1CCN(c2ccc(-c3cc(-c4ccc(O)cc4)cnc3N)cc2)CC1` [Compound 9, 4-[6-amino-5-[4-(4-methylpiperazin-1-yl)phenyl]pyridin-3-yl]phenol], the inhibition at 1.8 µM in the experiment with P. falciparum (Dd2) came to 53%; in the experiment with P. falciparum (3D7) it was 76%.
For `CS(=O)(=O)c1ccc(-c2cnc(N)c(-c3ccc(S(C)(=O)=O)cc3)c2)cc1` [Compound 17, 3,5-di-[4-(methylsulfonyl)phenyl]pyridin-2-amine], the EC50 in the experiment with P. falciparum (NF54) worked out at 0.031 µg/mL (≈ 0.077 µM); in the experiment on P. falciparum (K1) it was 0.032 µg/mL (≈ 0.0795 µM).
In the case of `CS(=O)(=O)c1ccc(-c2cnc(N)c(-c3ccc(C#N)cc3)c2)cc1` [Compound 25, 4-{2-amino-5-[4-(methylsulfonyl)-phenyl]pyridin-3-yl}benzonitrile], the EC50 in the experiment on P. falciparum (NF54) was determined as 0.056 µg/mL (≈ 0.16 µM); in the experiment with P. falciparum (K1), 0.051 µg/mL (≈ 0.146 µM).
Regarding `CS(=O)(=O)c1ccc(-c2cnc(N)c(-c3cccc(C#N)c3)c2)cc1` [Compound 26, 3-{2-amino-5-[4-(methylsulfonyl)-phenyl]pyridin-3-yl}benzonitrile], the EC50 in the experiment with P. falciparum (NF54) was 0.061 µg/mL (≈ 0.175 µM); in the experiment on P. falciparum (K1) it was 0.059 µg/mL (≈ 0.169 µM).
Take `CS(=O)(=O)c1ccc(-c2cnc(N)c(-c3ccc(C(N)=O)cc3)c2)cc1` [Compound 28, 4-{2-amino-5-[4-(methylsulfonyl)phenyl]pyridin-3-yl} benzamide]: the EC50 in the experiment with P. falciparum (NF54) and in the experiment with P. falciparum (K1) was 0.01 µg/mL (≈ 0.0272 µM) throughout.
As to `CNC(=O)c1ccc(-c2cc(-c3ccc(S(C)(=O)=O)cc3)cnc2N)cc1` [Compound 29, 4-{2-amino-5-[4-(methylsulfonyl)-phenyl]pyridin-3-yl}-N-methyl benzamide], the EC50 was 0.03 µg/mL (≈ 0.0786 µM) with P. falciparum (NF54) and 0.026 µg/mL (≈ 0.0682 µM) in the experiment on P. falciparum (K1).
Take `COc1ncc(-c2cc(-c3ccc(S(C)(=O)=O)cc3)cnc2N)cn1` [Compound 31, 3-(2-methoxypyrimidin-5-yl)-5-[4-(methylsulfonyl)phenyl]pyridin-2-amine]: the concentration for a half-maximal effect (EC50) came out at 0.093 µg/mL (≈ 0.261 µM) with P. falciparum (NF54) and 0.098 µg/mL (≈ 0.275 µM) in the experiment on P. falciparum (K1).
Regarding `CS(=O)(=O)c1ccc(-c2cnc(N)c(-c3cccc(OC(F)(F)F)c3)c2)cc1` [Compound 36, 5-[4-(methysulfonyl)phenyl]-3-[3-(trifluoromethoxy)phenyl] pyridin-2-amine], the EC50 is 0.078 µg/mL (≈ 0.191 µM) with P. falciparum (NF54) and 0.074 µg/mL (≈ 0.181 µM) in the experiment on P. falciparum (K1).
Take `CS(=O)(=O)c1ccc(-c2cnc(N)c(-c3ccc(OC(F)(F)F)cc3)c2)cc1` [Compound 37, 5-[4-(methylsulfonyl)phenyl]-3-[4-(trifluoromethoxy)phenyl]pyridin-2-amine]: the EC50 with P. falciparum (NF54) stood at 0.099 µg/mL (≈ 0.242 µM); in the experiment on P. falciparum (K1), 0.097 µg/mL (≈ 0.238 µM).
Regarding `CS(=O)(=O)c1ccc(-c2cnc(N)c(-c3ccnc(C(F)(F)F)c3)c2)cc1` [Compound 42, 3-[2-(trifluoromethyl)pyridin-4-yl]-5-[4-(methylsulfonyl)phenyl] pyridin-2-amine], the EC50 in the experiment on P. falciparum (NF54) was 0.071 µg/mL (≈ 0.18 µM); in the experiment with P. falciparum (K1) it was 0.061 µg/mL (≈ 0.155 µM).
Regarding `Cc1ccc(-c2cc(-c3ccc(S(C)(=O)=O)cc3)cnc2N)cn1` [Compound 43, 3-(2-methylpyridin-5-yl)-5-[4-(methylsulfonyl)phenyl] pyridin-2-amine], the EC50 is 0.0094 µg/mL (≈ 0.0277 µM) in the experiment on P. falciparum (NF54) and 0.0098 µg/mL (≈ 0.0289 µM) with P. falciparum (K1).
With `CS(=O)(=O)c1ccc(-c2cnc(N)c(-c3ccc(C(F)(F)F)nc3)c2)cc1` [Compound 44, 3-[2-(trifluoromethyl)pyridin-5-yl]-5-[4-(methylsulfonyl)phenyl] pyridin-2-amine], a half-maximal effect in the experiment on P. falciparum (K1) (EC50) was put at 0.01 µg/mL (≈ 0.0254 µM).
On to `CS(=O)(=O)c1ccc(-c2cnc(N)c(-c3ccc(-n4cccn4)cc3)c2)cc1` [Compound 47, 3-[4-(1H-pyrazol-1-yl)phenyl]-5-[4-(methylsulfonyl)phenyl] pyridin-2-amine], for which the EC50 in the experiment with P. falciparum (NF54) worked out at 0.089 µg/mL (≈ 0.228 µM); with P. falciparum (K1), 0.085 µg/mL (≈ 0.218 µM).
With `CS(=O)(=O)c1ccc(-c2cnc(N)c(-c3cnc(N)nc3)c2)cc1` [Compound 55, 5-{2-amino-5-[4-(methylsulfonyl)-phenyl]pyridin-3-yl}pyrimidin-2-amine], the results for the EC50 in the experiment with P. falciparum (NF54) and in the experiment with P. falciparum (K1) were 0.04 µg/mL (≈ 0.117 µM) and 0.041 µg/mL (≈ 0.12 µM), respectively.
Regarding `CS(=O)(=O)c1ccc(-c2cnc(N)c(-c3ccc4ncccc4c3)c2)cc1` [Compound 59, 5-[4-(methylsulfonyl)phenyl]-3-(quinolin-6-yl) pyridin-2-amine], the EC50 came to 0.107 µg/mL (≈ 0.285 µM) in the experiment on P. falciparum (NF54) and 0.098 µg/mL (≈ 0.261 µM) with P. falciparum (K1).
As to `Cc1ccc(-c2cc(-c3ccc(S(C)(=O)=O)cc3)cnc2N)cc1` [Compound 65, 5-[4-(methylsulfonyl)phenyl]-3-p-tolylpyridin-2-amine], the concentration for a half-maximal effect (EC50) in the experiment on P. falciparum (NF54) turned out to be 0.034 µg/mL (≈ 0.1 µM); in the experiment on P. falciparum (K1), 0.033 µg/mL (≈ 0.0975 µM).
Take `CS(=O)(=O)c1ccc(-c2cnc(N)c(-c3ccc(CO)nc3)c2)cc1` [Compound 69, {5-[2-amino-5-(4-(methylsulfonyl)-phenyl)pyridin-3-yl]pyridin-2-yl}methanol]: the EC50 with P. falciparum (NF54) came to 0.061 µg/mL (≈ 0.172 µM); with P. falciparum (K1), 0.06 µg/mL (≈ 0.169 µM).
Consider `NC(=O)c1ccc(-c2cc(-c3ccc(C(=O)N4CCOCC4)cc3)cnc2N)cc1` [Compound 71, {4-[2-amino-3-(4-carbamoyl phenyl)pyridin-5-yl]phenyl}-(morpholino) methanone], for which the EC50 was 0.0079 µg/mL (≈ 0.0196 µM) in the experiment on P. falciparum (NF54) and 0.0068 µg/mL (≈ 0.0169 µM) in the experiment on P. falciparum (K1).
For the molecule `CN(C)CC(=O)Nc1ccc(-c2cc(-c3ccc(S(C)(=O)=O)cc3)cnc2N)cc1` [Compound 75, N-{4-[2-amino-5-(4-(methylsulfonyl)phenyl)pyridin-3-yl]phenyl}-2-(dimethylamino) acetamide], the results for the EC50 in the experiment on P. falciparum (NF54) and in the experiment on P. falciparum (K1) were 0.088 µg/mL (≈ 0.207 µM) and 0.11 µg/mL (≈ 0.259 µM), respectively.
Take `CS(=O)(=O)c1ccc(-c2cnc(N)c(-c3ccc(S(C)(=O)=O)nc3)c2)cc1` [Compound 78, 5-[4-(methylsulfonyl)phenyl]-3-[2-(methylsulfonyl)-pyridin-5-yl]pyridin-2-amine]: the EC50 in the experiment with P. falciparum (NF54) worked out at 0.094 µg/mL (≈ 0.233 µM); with P. falciparum (K1), 0.11 µg/mL (≈ 0.273 µM).
Regarding `CC(=O)Nc1ccc(-c2cc(-c3ccc(S(C)(=O)=O)cc3)cnc2N)cn1` [Compound 79, N-{5-[2-amino-5-(4-(methylsulfonyl)-phenyl)pyridin-3-yl]pyridin-2-yl}acetamide], the EC50 worked out at 0.047 µg/mL (≈ 0.123 µM) in the experiment with P. falciparum (NF54) and 0.046 µg/mL (≈ 0.12 µM) in the experiment on P. falciparum (K1).
For `NC(=O)c1ccc(-c2cnc(N)c(-c3ccc(C(N)=O)cc3)c2)cc1` [Compound 80, 4-[2-amino-3-(4-benzamido)pyridin-5-yl]benzamide], the EC50 in the experiment on P. falciparum (NF54) is 0.025 µg/mL (≈ 0.0752 µM); in the experiment on P. falciparum (K1), 0.028 µg/mL (≈ 0.0842 µM).
`CS(=O)(=O)c1ccc(-c2cnc(N)c(-c3ccc(C(F)(F)F)cc3)c2)cc1` [Compound 85, 3-[4-(trifluoromethyl)phenyl]-5-[4-(methylsulfonyl)phenyl]pyridin-2-amine]: the EC50 in the experiment on P. falciparum (NF54) amounted to 0.0081 µg/mL (≈ 0.0206 µM); in the experiment on P. falciparum (K1), 0.0086 µg/mL (≈ 0.0219 µM).
